Experimental data as given in patent publication US20120029187A1, “HALOALKYLSULFONANILIDE DERIVATIVE” (Nissan Chemical Industries, Ltd., priority 2009, published 2012).

How the values were obtained:
Type in all cases: in vivo
barnyardgrass [1] = experiment: Test Example 3: herbicidal effects in soil treatment; conditions: dose 3.2 g/a
How it was run: (§1)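 Seeds were sown in sterilized diluvial soil and covered with about 1.5 cm of soil. Compounds, formulated as emulsifiable concentrates and diluted with water, were sprayed evenly over the soil surface at set doses in g/a. Herbicidal effect was scored on a rating scale three weeks later.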

wild oat [2] = experiment: as above; conditions: dose 3.2 g/a
How it was run: as §1

common ragweed [3] = experiment: as above; conditions: dose 3.2 g/a
How it was run: as §1

water foxtail [4] = experiment: as above; conditions: dose 3.2 g/a
How it was run: as §1

posumbu knotweed [5] = experiment: as above; conditions: dose 3.2 g/a
How it was run: as §1

common chickweed [6] = experiment: as above; conditions: dose 3.2 g/a
How it was run: as §1

Italian ryegrass [7] = experiment: as above; conditions: dose 3.2 g/a
How it was run: as §1

common lambsquater [8] = experiment: as above; conditions: dose 3.2 g/a
How it was run: as §1

large crabgrass [9] = experiment: as above; conditions: dose 3.2 g/a
How it was run: as §1

beadstraw [10] = experiment: as above; conditions: dose 3.2 g/a
How it was run: as §1

giant foxtail [11] = experiment: as above; conditions: dose 3.2 g/a
How it was run: as §1

redroot pigweed [12] = experiment: as above; conditions: dose 3.2 g/a
How it was run: as §1

barnyardgrass [13] = experiment: Test Example 4: herbicidal effect in foliage treatment; conditions: dose 3.2 g/a, three weeks after application
How it was run: (§2)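 A uniform foliar spray of emulsifiable concentrate, diluted with water to give the stated g/a dose, was applied to plants raised for 14 days from seed in sterilized diluvial soil at 25 to 30° C. Herbicidal effects were scored three weeks later.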

wild oat [14] = experiment: as above; conditions: dose 3.2 g/a, three weeks after application
How it was run: as §2

common ragweed [15] = experiment: as above; conditions: dose 3.2 g/a, three weeks after application
How it was run: as §2

water foxtail [16] = experiment: as above; conditions: dose 3.2 g/a, three weeks after application
How it was run: as §2

posumbu knotweed [17] = experiment: as above; conditions: dose 3.2 g/a, three weeks after application
How it was run: as §2

common chickweed [18] = experiment: as above; conditions: dose 3.2 g/a, three weeks after application
How it was run: as §2

Italian ryegrass [19] = experiment: as above; conditions: dose 3.2 g/a, three weeks after application
How it was run: as §2

common lambsquater [20] = experiment: as above; conditions: dose 3.2 g/a, three weeks after application
How it was run: as §2

large crabgrass [21] = experiment: as above; conditions: dose 3.2 g/a, three weeks after application
How it was run: as §2

velvetleaf = experiment: as above; conditions: dose 3.2 g/a, three weeks after application
How it was run: as §2

beadstraw [22] = experiment: as above; conditions: dose 3.2 g/a, three weeks after application
How it was run: as §2

giant foxtail [23] = experiment: as above; conditions: dose 3.2 g/a, three weeks after application
How it was run: as §2

redroot pigweed [24] = experiment: as above; conditions: dose 3.2 g/a, three weeks after application
How it was run: as §2

transplanted rice = experiment: Test Example 1: preemergence treatment under submerged conditions, effect on crop; conditions: dose 2.52 g/a
How it was run: (§3)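 Scoring 0 (<5% mortality) to 5 (≥90%) was done three weeks after preemergence application to the water surface of submerged (4 cm) alluvial soil, doses given as g per are. Weeds were seeded and 2.5-leaf rice transplanted on the treatment day; greenhouse at 25–30 °C.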

ducksalad [25] = experiment: Test Example 2: herbicidal effects during the vegetation period under submerged conditions; conditions: treatment during the vegetation period under submerged conditions; dose 2.52 g/a
How it was run: (§4)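 Barnyardgrass, bulrush and ducksalad were co-sown in alluvial soil flooded to 4 cm and grown in a greenhouse at 25 to 30° C. At the 1- or 2-leaf stage, water-diluted emulsifiable concentrates went onto the water surface at set doses (g/a). Herbicidal effect was scored three weeks later on a graded scale.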

barnyardgrass [26] = experiment: as above; conditions: treatment during the vegetation period under submerged conditions; dose 2.52 g/a
How it was run: as §4

bulrush [27] = experiment: as above; conditions: treatment during the vegetation period under submerged conditions; dose 2.52 g/a
How it was run: as §4

ducksalad [28] = experiment: Test Example 1: herbicidal effects in preemergence treatment under submerged conditions; conditions: dose 2.52 g/a
How it was run: as §3

barnyardgrass [29] = experiment: as above; conditions: dose 2.52 g/a
How it was run: as §3

bulrush [30] = experiment: as above; conditions: dose 2.52 g/a
How it was run: as §3

**Q.** Which “A: barnyardgrass, herbicidal effect (evaluation scale 0-5)” value (barnyardgrass [1]) does the source give for `CCOC(=O)N(c1ccccc1CN1COC(C(F)(F)F)CC1=O)S(=O)(=O)C(F)(F)F` (centres unmarked) [II-15] here?
**A.** Its value is 4 (mortality of at least 70% and less than 90%).

**Q.** And the “F: wild oat, herbicidal effect (evaluation scale 0-5)” value (wild oat [2])?
**A.** The value was 0 (mortality of less than 5% (almost ineffective)).

**Q.** And the “J: common ragweed, herbicidal effect (evaluation scale 0-5)” value (common ragweed [3])?
**A.** The value was 4 (mortality of at least 70% and less than 90%).

**Q.** What about the “G: water foxtail, herbicidal effect (evaluation scale 0-5)” value (water foxtail [4]) of the same molecule?
**A.** Its value is 5 (mortality of 90% or above (nearly complete death)).

**Q.** What about the “M: posumbu knotweed, herbicidal effect (evaluation scale 0-5)” value (posumbu knotweed [5]) of the same molecule?
**A.** Its value is 0 (mortality of less than 5% (almost ineffective)).

**Q.** What about the “N: common chickweed, herbicidal effect (evaluation scale 0-5)” value (common chickweed [6]) of the same molecule?
**A.** The value was 4 (mortality of at least 70% and less than 90%).

**Q.** And the “H: Italian ryegrass, herbicidal effect (evaluation scale 0-5)” value (Italian ryegrass [7])?
**A.** Its value is 4 (mortality of at least 70% and less than 90%).

**Q.** What about the “L: common lambsquater, herbicidal effect (evaluation scale 0-5)” value (common lambsquater [8]) of the same molecule?
**A.** Its value is 4 (mortality of at least 70% and less than 90%).

**Q.** What about the “D: large crabgrass, herbicidal effect (evaluation scale 0-5)” value (large crabgrass [9]) of the same molecule?
**A.** Its value is 5 (mortality of 90% or above (nearly complete death)).

**Q.** And the “O: beadstraw, herbicidal effect (evaluation scale 0-5)” value (beadstraw [10])?
**A.** Its value is 0 (mortality of less than 5% (almost ineffective)).

**Q.** And the “E: giant foxtail, herbicidal effect (evaluation scale 0-5)” value (giant foxtail [11])?
**A.** Its value is 0 (mortality of less than 5% (almost ineffective)).

**Q.** What about the “K: redroot pigweed, herbicidal effect (evaluation scale 0-5)” value (redroot pigweed [12]) of the same molecule?
**A.** Its value is 4 (mortality of at least 70% and less than 90%).

**Q.** And the “A: barnyardgrass, herbicidal effect” value (barnyardgrass [13])?
**A.** The value was 4 (mortality of at least 70% and less than 90%).

**Q.** And the “F: wild oat, herbicidal effect” value (wild oat [14])?
**A.** Its value is 0 (mortality of less than 5% (almost ineffective)).

**Q.** What about the “J: common ragweed, herbicidal effect” value (common ragweed [15]) of the same molecule?
**A.** Its value is 3 (mortality of at least 40% and less than 70%).

**Q.** What about the “G: water foxtail, herbicidal effect” value (water foxtail [16]) of the same molecule?
**A.** Its value is 5 (mortality of 90% or above (nearly complete death)).

**Q.** What about the “M: posumbu knotweed, herbicidal effect” value (posumbu knotweed [17]) of the same molecule?
**A.** The value was 3 (mortality of at least 40% and less than 70%).

**Q.** And the “N: common chickweed, herbicidal effect” value (common chickweed [18])?
**A.** The value was 4 (mortality of at least 70% and less than 90%).

**Q.** What about the “H: Italian ryegrass, herbicidal effect” value (Italian ryegrass [19]) of the same molecule?
**A.** Its value is 1 (mortality of at least 5% and less than 20%).

**Q.** What about the “L: common lambsquater, herbicidal effect” value (common lambsquater [20]) of the same molecule?
**A.** Its value is 4 (mortality of at least 70% and less than 90%).

**Q.** What about the “D: large crabgrass, herbicidal effect” value (large crabgrass [21]) of the same molecule?
**A.** The value was 4 (mortality of at least 70% and less than 90%).

**Q.** What about the “I: velvetleaf, herbicidal effect” value (velvetleaf) of the same molecule?
**A.** The value was 5 (mortality of 90% or above (nearly complete death)).

**Q.** And the “O: beadstraw, herbicidal effect” value (beadstraw [22])?
**A.** Its value is 4 (mortality of at least 70% and less than 90%).

**Q.** And the “E: giant foxtail, herbicidal effect” value (giant foxtail [23])?
**A.** Its value is 3 (mortality of at least 40% and less than 70%).

**Q.** And the “K: redroot pigweed, herbicidal effect” value (redroot pigweed [24])?
**A.** Its value is 0 (mortality of less than 5% (almost ineffective)).

**Q.** What about the “a: transplanted rice, effect on crop (evaluation scale 0-5)” value (transplanted rice) of the same molecule?
**A.** The value was 0 (mortality of less than 5% (almost ineffective)).

**Q.** What about the “C: ducksalad, herbicidal effect (evaluation scale 0-5)” value (ducksalad [25]) of the same molecule?
**A.** Its value is 5 (mortality of 90% or above (nearly complete death)).

**Q.** What about the “A: barnyardgrass, herbicidal effect (evaluation scale 0-5)” value (barnyardgrass [26]) of the same molecule?
**A.** The value was 5 (mortality of 90% or above (nearly complete death)).

**Q.** And the “B: bulrush, herbicidal effect (evaluation scale 0-5)” value (bulrush [27])?
**A.** The value was 5 (mortality of 90% or above (nearly complete death)).

**Q.** What about the “C: ducksalad, herbicidal effect (evaluation scale 0-5)” value (ducksalad [28]) of the same molecule?
**A.** The value was 5 (mortality of 90% or above (nearly complete death)).

**Q.** What about the “A: barnyardgrass, herbicidal effect (evaluation scale 0-5)” value (barnyardgrass [29]) of the same molecule?
**A.** Its value is 5 (mortality of 90% or above (nearly complete death)).

**Q.** And the “B: bulrush, herbicidal effect (evaluation scale 0-5)” value (bulrush [30])?
**A.** Its value is 5 (mortality of 90% or above (nearly complete death)).
